One assay has as its system Kasumi-1 cells. In words: CFU experiments, off and on stroma. The format is cell-based. Particulars: 10^−6 M ATRA, IRX5183, or 10^−7 M AM80. From the text:
(§1) Data across three independent experiments.

The test system of the next assay is NB4 cells. Kind of assay: CFU experiments, off and on stroma. It is filed as cell-based. To be noted: 10^−7 M ATRA, IRX5183, or 10^−8 M AM80.
Excerpt: as §1

The subject of another assay is OCI-AML3 cells. In words: CFU experiments, off and on stroma. The format is cell-based. Particulars: 10^−6 M ATRA, IRX5183, or 10^−7 M AM80.
Excerpt: as §1

Assay [1] relates to H929 cells and primary CD138+ MM cells. In words: clonogenic or cellular recovery of MM cells after BTZ treatment. It is filed as cell-based, human. To be noted: for sensitivity of MM cells to BTZ: BTZ 2.5 nM for 48 hours. How it is done:
FIG. 4A-B depicts the clonogenic recovery (CFU) of H929 cells (FIG. 4A) or cellular recovery of primary CD138+ MM cells from 3 different patient samples (FIG. 4B). MM cells were treated with bortezomib (BTZ; 2.5 nM) for 48 hours after being incubated for 5 days either in the absence of stroma (Liquid), with or without the pan-RAR inhibitor AGN (1 μM), or in the presence of BM mesenchymal cells (Stroma), with or without the CYP26 inhibitor R115 (1 μM) or the CYP26-resistant retinoid IRX (1 μM). Clonogenic or cellular recovery was normalized to each condition in the absence of BTZ.
(§2) Coculture experiments. 24-well plates were coated with 0.1% gelatin in PBS for 30 min at 37° C. The gelatin solution was removed, and the stromal cells were cultured overnight at a density of 5×10^4 cells/well to obtain a confluent monolayer. At that time, MM cell lines or primary MM cells (1×10^5 in 2 ml) were added to the stroma cultures. The stroma cocultures were incubated at 37° C. in RPMI containing 10% FCS, L-glutamine, and P/S, with or without AGN194310 (1 μM for 5 days), R115866 (1 μM for 5 days), IRX5183 (1 μM for 5 days), or BTZ (2.5 nM for 48 hr).
Clonogenic assays. After treatment, MM cells were collected, washed with PBS, and plated at a density of 5,000 cells/ml in 1 ml of 1.32% methylcellulose supplemented with 30% FBS, 10% BSA, L-glutamine, P/S, and 0.1 mM β-ME. Cells were plated in triplicate in 35-mm culture dishes, incubated at 37° C., and scored for the presence of colonies 14 days later.
A RA-low microenvironment induces BTZ resistance. To determine whether decreased retinoid signaling contributes to BTZ resistance within the BM niche, MM cell lines and MM CD138+ primary cells were incubated with BM stroma for 5 days, followed by BTZ treatment.

The next assay has as its system H929 cells. In words: mobilization experiment, BTZ after separation from BM stroma. It is filed as cell-based, human. How it is done: FIG. 5 depicts clonogenic recovery of H929 cells treated with BTZ (2.5 nM). MM cells were incubated for 5 days in the absence (Liquid) or presence of BM mesenchymal cells (Stroma), with or without R115 (1 μM). Following this preincubation, H929 cells were separated from BM stroma, cultured in fresh media for 0 to 48 hours, and then treated with BTZ (2.5 nM) for 48 hours. Clonogenic recovery was normalized to each condition in the absence of BTZ.
Mobilization experiments. MM cells were separated from BM stromal cells by gently pipetting several times around the well. Detached cells were centrifuged, resuspended in fresh media, and incubated in a 24-well plate for 1 hr at 37° C. During this short incubation period, contaminating stromal cells attached to the well, while MM cells remained in suspension. MM cells were then recovered by gently pipetting. This protocol was used for qRT-PCR and CFU coculture experiments. […]
Clonogenic assays. […] Cells were plated in triplicate in 35-mm culture dishes, incubated at 37° C., and scored for the presence of colonies 14 days later.
Strategies to overcome microenvironment-dependent chemoprotection have focused on mobilization of cancer cells from the BM niche into the peripheral circulation. It was analyzed whether the change in phenotype and subsequent BTZ resistance of MM cells were lost upon separation from the BM stroma, a process that mimics mobilization. […]

Another assay deals with H929 Luc+ cells. In words: systemic MM xenograft, bioluminescence. The format is in vivo, mouse. To be noted: monotherapy, 4 weeks; BTZ 0.5 mg/kg i.p. twice weekly, IRX 10 mg/kg once daily. How it is done: FIG. 6 depicts bioluminescent images of systemic MM xenografts. Following engraftment of H929 Luc+ cells, mice were treated with IRX (n=4), BTZ (n=5), or a combination of both (n=5) for 4 weeks. Data represent the mean±SEM of the fold change in bioluminescence (photons/second) from day 0.
For the systemic MM model, 2×10^6 Luc+/GFP+ H929 cells were injected via the tail vein into 16-week-old male NSG mice. After engraftment, as determined by an exponential increase in bioluminescence, mice were treated with BTZ (0.5 mg/kg i.p.) twice weekly and with IRX (10 mg/kg) once daily. Tumor burden was assessed by bioluminescence, as above.
To test whether retinoids can enhance BTZ activity in MM, a systemic MM xenograft was developed by injecting 2×10^6 H929 luciferase+ (Luc+) cells via the tail vein of non-obese, diabetic, severe combined immunodeficiency IL-2 receptor y-KO (NSG) mice. The animals were randomized to receive IRX, BTZ, or a combination of both, and disease burden was followed weekly by bioluminescence imaging (FIG. 6).

Assay [2] has as its system H929 Luc+ cells with WT or Smo-KO stroma. In words: subcutaneous xenograft model of MM-niche interactions, bioluminescence. The format is in vivo, mouse. Particulars: BTZ 0.5 mg/kg i.p. twice weekly. How it is done:
FIG. 9 depicts bioluminescent images of mice showing tumor burden during 4 weeks of treatment with IRX (10 mg/kg), BTZ (0.5 mg/kg), or the combination. Anterior tumors consisted of a combination of MM.1S luciferase^+ cells and Smo^FI/FI BM stroma cells transduced with a control vector (WT BM stroma). Posterior tumors consisted of a combination of MM.1S luciferase^+ cells and Smo^FI/FI BM stroma cells transduced with Cre-recombinase (Smo KO BM stroma).
FIG. 10 depicts the fold change in bioluminescence (photons/second) of tumors during 4 weeks of treatment. The change in bioluminescence for each tumor […].
Mouse xenografts. 1×10^6 H929 Luc+ cells and 1×10^6 mouse BM stromal cells were resuspended in 100 μl […]®, diluted with RPMI (1:1), and injected subcutaneously into 16-week-old male NSG mice. After 4 days, treatment with BTZ (0.5 mg/kg i.p. twice weekly) and IRX (10 mg/kg i.p. daily) was initiated. Tumor burden was assessed by bioluminescence using the In Vivo Imaging System (PerkinElmer). For imaging, mice were exposed to 120 mg/kg D-luciferin via intraperitoneal injection […] before imaging and were anesthetized using isoflurane. Images were analyzed with Living Image Software, version 2.5 (PerkinElmer), and data were quantified as photons/second.
To study to what extent an RA-low environment created by the BM stroma and enhanced by MM cells via paracrine Hedgehog signaling contributes to BTZ resistance, a xenograft model of MM-niche interactions was developed. Each mouse carried 2 subcutaneous tumors consisting of H929 Luc+ cells and either WT (anterior tumors) or Smo-KO stroma (posterior tumors). Mice were treated with IRX (10 mg/kg i.p. daily), BTZ (0.5 mg/kg i.p. twice weekly), or a combination of both. The growth of tumors bearing WT or Smo-KO stroma was not different in untreated or IRX-treated groups (FIGS. 9 and 10). […] While some tumors in the treatment group receiving combined IRX and BTZ appeared to have regressed completely, even after anatomical study, this was not the case for all the mice in this group.

For assay [3], the system named is H929 cells and CD138+ primary MM cells. In words: qRT-PCR of B cell and PC markers in MM cells, liquid or BM stroma co-culture. The format is cell-based, human. How it is done: FIG. 3A-H depicts the relative concentration of plasma markers BCL6 (FIG. 3A and E), BLIMP-1 (FIG. 3B and F), XBPS-1 (FIG. 3C and G), and CHOP (FIG. 3D and H) in multiple myeloma (MM) cell lines H929 (FIG. 3A-D) or CD138+ MM cells from three different patient samples (FIG. 3E-H) incubated for 5 days either in the absence of stroma (Liquid), with or without AGN (RA receptor antagonist AGN194310, 1 μM), or co-cultured with BM mesenchymal cells (Stroma), with or without R115 (CYP26 inhibitor R115866, 1 μM) or IRX (CYP26-resistant retinoid IRX5183, 1 μM). Expression in untreated liquid conditions was set at 1. Data are representative of 3 independent experiments with similar results and represent the mean ±SEM. *P≤0.05 and **P≤0.01, by repeated-measures 1-way ANOVA for determination of statistical significance between groups; P values were corrected for multiple comparisons using Dunnett's test. Ctrl, control; max, maximum.
as §2
(§3) qRT-PCR. Total RNA was extracted using the RNeasy Mini Kit (QIAGEN) according to the manufacturer's instructions. cDNA was synthesized by reverse transcription using the iScript cDNA Synthesis Kit (Bio-Rad). qRT-PCR was performed with iTaq SYBR Green Supermix (Bio-Rad) using sequence specific primers. Gene expression was normalized to GAPDH, and relative quantification was calculated using ΔΔCt. All experiments were performed in duplicate and run on the Bio-Rad CFX96 machine.
The BM microenvironment (also called “niche”) limits PC differentiation by modulating retinoid signaling. A population of MM progenitors, phenotypically similar to B cells, is intrinsically resistant to BTZ and contributes to MRD and relapse. To investigate whether the BM niche plays a role in determining the phenotype of MM cells, the mRNA expression of B cell and PC markers in MM H929 cell lines (FIG. 3A-D) and MM CD138+ primary cells (FIG. 3E-H) was analyzed following co-culture with mouse BM stroma using human-specific primers. […] In contrast, co-culture of MM cells with BM stroma decreased the mRNA expression of B lymphocyte-induced maturation protein 1 (BLIMP1) and spliced X box-binding protein 1 (XBP1s) (FIG. 3B, C, F, G), which are critical mediators of PC differentiation.
The BM niche regulates hematopoietic stem cell (HSC) differentiation by expressing the retinoid-inactivating enzyme CYP26. CYP26 enzymes were highly expressed in BM mesenchymal cells, while their expression was barely detectable in MM cells. Since retinoid signaling promotes PC differentiation and potentiates Ig secretion, it was determined whether stromal CYP26 is responsible for inducing a B cell phenotype in MM cells. To this end, co-culture conditions were treated with the CYP26 inhibitor R115866 (R115) or the CYP26-resistant RA receptor α-selective (RARα-selective) retinoid IRX5183 (IRX).

The next assay relates to BM stromal cells. In words: CYP26A1 expression in BM stromal cells exposed to soluble factors. It is filed as cell-based. To be noted: soluble factors tested. How it is done: as §3

Turning to `CC1=C(/C=C/C(C)=C/C=C/C(C)=C/C(=O)O)C(C)(C)CCC1` [ATRA, all-trans retinoic acid], the “clonogenic growth (CFU), differentiation and elimination of AML” value with Kasumi-1 cells, in the assay with NB4 cells and in the assay with OCI-AML3 cells was “stroma blockage” in each case.
Regarding `CC(C)C[C@H](NC(=O)[C@H](Cc1ccccc1)NC(=O)c1cnccn1)B(O)O` [BTZ, bortezomib], the “sensitivity of MM cells to BTZ” value in assay [1] (absence of BM stroma (liquid)) is listed as “highly sensitive to BTZ”; in assay [1] (after 5 days incubation with BM stroma), “induced BTZ resistance”. In addition, the “BTZ resistance after separation from BM stroma” value with H929 cells (5-day stroma co-culture, fresh media 0 to 48 hr, then BTZ 2.5 nM) is given as “remained partially resistant to BTZ for up to 48 hr following detachment from stroma”. For the same compound, the “tumor burden (bioluminescence)” value in the assay with H929 Luc+ cells is listed as “decreased tumor growth compared with untreated controls”. Also, the “tumor response (bioluminescence)” value in assay [2] (tumors carrying Smo-KO stroma) is listed as “significant response”; in assay [2] (tumors with WT stroma) it was “refractory to BTZ treatment”.
Regarding `CCC(CC)C(c1ccc(Nc2nc3ccccc3s2)cc1)n1cncn1` (stereo not drawn) [Compound R115866], the “expression of differentiation markers by qRT-PCR or flow cytometry” value in [3] (liquid conditions compared with BM stroma) is “did not significantly affect the expression of differentiation markers”. Also, the “mRNA expression of B cell and PC markers (BCL6, BLIMP1, XBP1s, CHOP)” value in assay [3] (stroma co-cultures, 1 μM for 5 days) is on record as “restored all markers to levels comparable to those of liquid control conditions”. Further, in assay [1] (stroma co-culture, 1 μM for 5 days, then BTZ 2.5 nM), the “effect on stroma-induced BTZ resistance” value is on record as “overcome”. Besides, in the assay on H929 cells (co-culture treated with 1 μM, then separation and BTZ), the “development of BTZ-resistant phenotype” value was “prevented the development of a BTZ-resistant phenotype”.
In the case of “IL-6: cytokine, soluble factor produced by MM cells”, the “expression of CYP26A1 on BM stromal cells” value with BM stromal cells is listed as “no significant effects”.
Still for that read-out and setting: the entry for TNF-α is “no significant effects”.
